How the values were obtained:
osteoblastic metastases = details: Yin et al. 2003; cited from earlier work
[1] = tested on: mouse MC3T3 osteoblast cell line; test: ELISA assays of secreted PAI-1, OPG and IL-6 in osteoblast supernatants; assay type: cell-based
Source text: (§1) Mouse MC3T3 pre-osteoblastic cells (subclone 4) were purchased from ATCC (Manassis, Va.) and propagated in αMEM media without ascorbic acid (Invitrogen, Carlsbad, Calif.) supplemented with 10% FBS (Invitrogen). Human Mesenchymal Stem Cells (MSCs) were purchased from Cambrex (Walkersville, Md.) and propagated according in MSCGM™ media (Cambrex). To initiate differentiation of the MSC into human osteoblasts, the growth media was replaced by osteogenic differentiation medium (OGM, Cambrex).
Mouse MC3T3 osteoblast cells were propagated as set out above, and at times indicated were harvested and spun at 250×g for 10 minutes at room temperature. The clarified supernatants were aliquoted and frozen until analyzed. 200 microliters of each sample was tested in quadruplicate by commercially available ELISA assay kits for PAI-1 (Molecular Innovations, Southfield, Mich.), OPG (Biomedica, San Diego, Calif.) and IL-6 (Ray Biotech, Norcross, Ga.). The ELISA tests were performed according to the manufacturer's instructions. Data from these tests are shown in FIG. 1 (PAI-1), FIG. 2 (OPG) and FIG. 3 (IL-6).

[2] = tested on: Mouse preosteoblastic MC3T3 cells; test: Microarray analysis of gene expression in ET-treated mouse osteoblasts; assay type: cell-based; details: for # Genes Blocked by ABT-627, percent of genes induced by ET: drug added 1 hour prior to ET; for Induced by ET (number of genes): genes regulated ≧1.5-fold, p ≦0.01
Source text: as §1
(§2) Mouse preosteoblastic MC3T3 cells as well as primary human osteoblasts were treated with ET, from Sigma (St. Louis, Mo.), for 2, 4, and 6 hours in the absence or presence of the ETa receptor antagonist ABT-627, from Abbott Laboratories (Abbott Park, Ill.). The drug was added 1 hour prior to the addition of ET.
(§3) Total RNA was extracted from the treated cell lines and purified on RNeasy columns (Qiagen, Valencia, Calif.). Labeled cRNA was prepared according to the microarray manufacturer Affymetrix's protocol and hybridized to either mouse 430A 2.0 or human U133A 2.0 arrays (Affymetrix, Santa Clara, Calif.). Gene expression fold changes for each treatment were calculated by combining three biological replicates for each treatment using the Rosetta Resolver's Affymetrix error model software and building a ratio from the resulting values. All genes regulated ≧1.5-fold with a p-value of ≦0.01 were retained for further analysis. Conventional two-dimensional clustering was then performed by using the agglomerative hierarchical clustering algorithm. The Euclidean distance was used as the similarity metric.

[3] = tested on: metastatic hormone-refractory prostate cancer; details: patients with metastatic hormone-refractory prostate cancer; Nelson et al. 2003; cited from earlier work
[4] = tested on: primary human osteoblasts; test: Microarray analysis of gene expression in ET-treated primary human osteoblasts; assay type: cell-based; details: ET-1 treatment
Source text: as §1, §2
as §3, with “All genes regulated ≧1.5-fold with a p-value of ≦0.01 were retained for further analysis. Conventional two-dimensional clustering was then performed by using the agglomerative hierarchical clustering algorithm. The Euclidean distance was used as the similarity metric.” left out

[5] = endothelin in the presence of ABT-627

SMILES: CCCCN(CCCC)C(=O)CN1C[C@H](c2ccc3c(c2)OCO3)[C@@H](C(=O)O)[C@@H]1c1ccc(OC)cc1 [ABT-627, (2R,3R,4S)-(+)-2-(4-Methoxyphenyl)-4-(1,3-benzodioxol-5-yl)-1-(N,N-di(n-butyl)aminocarbonylmethyl)-pyrrolidine-3-carboxylic acid]
- Metastatic growth (osteoblastic metastases): suppressed
- Endothelin-induced expression of IL-6 (ELISA) [1, 5]: substantial suppression
- Endothelin-induced expression of OPG (ELISA) [1, 5]: substantial suppression
- Endothelin-induced expression of PAI-1 (ELISA) [1, 5]: substantial suppression
- # Genes Blocked by ABT-627, percent of genes induced by ET ([2]; 2 hr ET): (96%)
- # Genes Blocked by ABT-627, percent of genes induced by ET ([2]; 4 hr ET): (83%)
- # Genes Blocked by ABT-627, percent of genes induced by ET ([2]; 6 hr ET): (97%)
- Induction by ET of suppression-of-apoptosis genes (Nur77, Flt1, NFATc1) ([2]; ET in presence of ABT-627): the induction was blocked
- Effect of pre-treatment on ET gene induction events ([2]; all three timepoints (2, 4, 6 hours), pre-treatment before ET): abrogated almost all of these gene induction events
- Gene expression changes caused by antagonist alone ([2]; antagonist alone, no ET): very few gene expression changes
- Induction by ET-1 of osteoblastic maturation genes (OPG, COX-2, Dmp1, Tgfbi, CTGF, Klf10) ([2]; pre-treatment with ABT-627): blocked
- Time to disease progression [3]: extended

SMILES: CC[C@H](C)[C@H](NC(=O)[C@H](CC(=O)O)NC(=O)[C@H](CC(C)C)NC(=O)[C@H](Cc1c[nH]cn1)NC(=O)[C@@H]1CSSC[C@H](N)C(=O)N[C@@H](CO)C(=O)N[C@H]2CSSC[C@H](NC(=O)[C@H](CCC(=O)O)NC(=O)[C@H](CCCCN)NC(=O)[C@H](CC(=O)O)NC(=O)[C@H](CCSC)NC(=O)[C@H](CC(C)C)NC(=O)[C@H](CO)NC(=O)[C@H](CO)NC2=O)C(=O)N[C@@H](C(C)C)C(=O)N[C@@H](Cc2ccc(O)cc2)C(=O)N[C@@H](Cc2ccccc2)C(=O)N1)C(=O)N[C@H](C(=O)N[C@@H](Cc1c[nH]c2ccccc12)C(=O)O)[C@@H](C)CC [ET]
- Expression of genes coding for secreted proteins (PAI-1, uPA, TGFbeta2, IL-6, IL-8) [4]: strongly upregulated
- Expression of IL-6 (ELISA) ([1]; treatment with endothelin): strongly induced
- Expression of OPG (ELISA) ([1]; treatment with endothelin): strongly induced
- Expression of PAI-1 (ELISA) ([1]; treatment with endothelin): strongly induced
- # Genes Down-regulated by ET ([2]; 2 hr ET treatment): 423
- Induced by ET (number of genes) ([2]; 2 hr ET treatment): 608
- # Genes Down-regulated by ET ([2]; 4 hr ET treatment): 295
- Induced by ET (number of genes) ([2]; 4 hr ET treatment): 472
- # Genes Down-regulated by ET ([2]; 6 hr ET treatment): 95
- Induced by ET (number of genes) ([2]; 6 hr ET treatment): 194
- Expression of suppression-of-apoptosis genes (Nur77, Flt1, NFATc1) ([2]; ET treatment): induced
- Expression of genes coding for secreted proteins (PAI-1, uPA, TGFbeta2, IL-6, IL-8) ([2]; mouse osteoblasts, ET-1 treatment): strongly upregulated

Source: patent US20100184026A1, “Companion Diagnostic Assays For Endothelin Receptor Antagonists” (ABBOTT LABORATORIES, priority 2009, published 2010)
